Measurements taken from patent US11224565B2, “N-acyldipeptide derivatives and their uses” (NeoStrata Company, Inc., priority 2011, dated 2022).
Peptide text beside a SMILES is read from it.

Experiments:
[1] = test system: near-sightedness (myopia); test: Topical application around the eyes, eye vision (myopia); type: in vivo, human; conditions: person
Description: Typical examples of improving eye vision are described as follows.
Each time their vision in both eyes got worse, and they required changes in contact lenses in past years. This time, 6 weeks before their checkup, the subject topically applied twice daily 0.5% (w/v) N—Ac-L-Tyr-L-Tyr-NH2 in WEP442, pH 6.7 (Example 5) on the skin around and outside of eye areas and periorbital regions for 6 weeks.
Each time their vision in both eyes worsened, and they required changes in the prescription for their contact lenses in the past years. This time, one month before their checkup, the subject topically applied once daily 0.5% (w/v) N—Ac-L-Tyr-L-Tyr-NH2 in WEP442, pH 6.7 (Example 5) on the skin around and outside of eye areas and periorbital regions for 4 weeks.

[2] = test system: varicose veins; test: Topical treatment of varicose veins; type: in vivo, human; conditions: 0.5% (w/v) in WEP442 topically twice daily, right lower leg, end of four weeks
Description: A subject had multiple varicose veins in their right lower leg for many years resistant to any kind of topical treatments including high potency alpha-hydroxyacids. The lesions of varicose veins covered an area of skin measuring 5 cm×10 cm and appeared more prominent with advancing age. The subject topically applied twice daily 0.5% (w/v) N—Ac-L-Tyr-L-Tyr-NH2 in WEP442 solution as prepared in Example 5. […] It is believed that continued topical application will eradicate the varicose veins.

[3] = test system: muscle strength; test: Pushup performance after topical application to upper chest; type: in vivo, human; conditions: 0.5% (w/v) in WEP442 pH 6.9 on upper chest about 30 minutes before exercise; routinely about 100
Protocol: A subject, performed pushups routinely with a maximal number of about 100 in one hour. The subject topically applied 0.5% (w/v) N—Ac-L-Tyr-L-Tyr-NH2 in WEP442, pH 6.9 solution as prepared in Example 5 to ease the tight muscles on the upper chest about 30 minutes before the exercise. The subject was surprised to find that after the topical application they could now perform pushups with a maximal number of about 200 in one hour without feeling tired. The subject repeated the performance next day with the same enhanced result. To make sure that the enhanced effect on the muscles was not due to the vehicle solution, in the following day the subject topically applied WEP442 solution to the same upper chest about 30 minutes before the exercise. This time the subject could not perform the same number of pushups as before.

[4] = test system: sweating of underarm; test: Topical application to underarm, perspiration; type: in vivo, human; conditions: 0.5% (w/v) in WEP442 pH 6.7 after shower
Description: A subject, routinely took a shower every morning, then topically applied a conventional antiperspirant product on the underarm skin to prevent perspiration. To test the efficacy of the N-acyldipeptide derivative of the present invention, the subject after the shower, topically applied 0.5% (w/v) N—Ac-L-Tyr-L-Tyr-NH2 in WEP442, pH 6.7 (Example 5) on the left underarm and a control vehicle WEP442 on the right underarm. After two hours, there was profuse sweating in the right underarm as evidenced by the wet shirt in the armpit area. In contrast, there was no sweating in the left underarm as shown by the dry shirt in the armpit area. The left underarm was dry for the next 6-8 hours.

[5] = test system: MB231 breast cancer cells; test: In vitro screen for anti-tumor effects: proliferation of MB231 cells (MTS); type: cell-based; conditions: 20 μg/ml, end of 3 days of incubation, MTS absorbance at 490 nm vs water control
Protocol: A typical in vitro screen for anti-tumor or anti-cancer effects was carried out as follows.
An aliquot of 2,000 MB231 breast cancer cells (breast carcinoma cells) in 100 μl DMEM complete media (Sigma Chemical Co.) was plated in a 96 well plate containing at a concentration of 20 μg/ml a test substance or control water. To measure proliferation of the cancer cells, an aliquot of 20 μl of MTS reagent (Promega Co.) was added to each well and the cells were incubated at […] for a total of three days. The cells rapidly metabolized MTS reagent and the metabolized MTS reagent was measured at 490 nm at the end of days 1, 2 and 3. The reading was proportional to the number of cancer cells. The decrease in absorbance at each time point indicated fewer cancer cells. At the end of day 3, the decrease in absorbance with respect to the control indicated the inhibition by the test substance.

[6] = test system: osteoarthritis of both knees; test: Intra-articular injections in knee osteoarthritis; type: in vivo, human
Protocol: Bioactive dipeptide derivative of the present invention as potential treatment of knee osteoarthritis by intra-articular injections.
A subject had severe osteoarthritis of both knees for four and half years. Prior therapy had included intra-articular injections of corticosteroids and hyaluronic acid as well as celecoxib (Celebrex) orally (200 mg) twice daily. Such therapy had provided only mild transitory relief of knee pain and edema, and edema of lower legs.
Intra-articular injections of 0.2% (w/v) N—Ac-L-Val-L-Ala-NH2 in water, 1 ml (2 mg) as prepared in Example 22 were administered to each knee. The pains in both knees disappeared 10-15 minutes after the injections, and the relief of pains lasted for 24 hours. Edema and inflammation of the knees and lower legs had diminished for approximately the same 24 hour period. Repeat injections of the same composition were administered once a week for five weeks to provide continued relief of pain, edema and inflammation.
In another trial, intra-articular injections of 0.2% (w/v) N—Ac-L-Val-L-Ala-NH2 with 1% (w/v) methyl cellulose in water, 0.4 ml (0.8 mg) as prepared in Example 22 were also administered to each knee at different times. The pains in both knees disappeared 10-15 minutes after the injections, and the relief of pains lasted for 24 hours. Edema and inflammation of the knees and lower legs had diminished for approximately the same 24 hour period.
In yet another embodiment, the volunteer subject injected intra-articularly into a knee joint a test composition containing a bioactive dipeptide derivative of the present invention to improve and reduce arthritic inflammation and pain of the joint.

[7] = test system: skin cut with an open wound; test: Topical treatment of skin wound; type: in vivo, human; conditions: 0.5% (w/w) cream twice daily on 2 cm open wound
Description: The subject topically applied twice daily 0.5% (w/w) N—Ac-L-Val-L-Ala-NH2 cream as formulated in Example 2 on the wound. […] At the end of 5 days, the wound had healed nearly completely, and treated skin appeared normal without any signs of scar formation. The wound had 95-100% improvement as judged by clinical evaluation.

[8] = 0.2% (w/v) in water, 1 ml (2 mg) intra-articular per knee
[9] = 0.2% (w/v) with 1% (w/v) methyl cellulose in water, 0.4 ml (0.8 mg) intra-articular per knee

| Compound | vision in both eyes at yearly checkup ([1]; 0.5% (w/v) in WEP442 pH 6.7 once daily on skin around eyes for 4 weeks) | vision in both eyes at yearly checkup ([1]; 0.5% (w/v) in WEP442 pH 6.7 twice daily on skin around eyes for 6 weeks) | appearance of varicose vein lesions [2] | maximal number of pushups in one hour [3] | time the treated underarm stayed dry [4] [h] | sweating of treated left underarm ([4]; after two hours, vehicle underarm profuse sweating) | inhibition of the growth of breast cancer cells [5] | duration of relief of pains [6, 8] [h] | period of diminished edema and inflammation of knees and lower legs [6, 8] [h] | time after injection until pains in both knees disappeared [6, 8] [min] | duration of relief of pains [6, 9] [h] | period of diminished edema and inflammation of knees and lower legs [6, 9] [h] | time after injection until pains in both knees disappeared [6, 9] [min] | improvement of wound as judged by clinical evaluation ([7]; end of 5 days) | wound pain after topical application ([7]; left leg) |
| --- | --- | --- | --- | --- | --- | --- | --- | --- | --- | --- | --- | --- | --- | --- | --- |
| CC(=O)N[C@@H](Cc1ccc(O)cc1)C(=O)N[C@@H](Cc1ccc(O)cc1)C(N)=O [N-Ac-L-Tyr-L-Tyr-NH2] (Ac-Tyr-Tyr-NH2) | did not worsen | did not worsen | appeared less prominent | about 200 | 6 to 8 | no sweating |  |  |  |  |  |  |  |  |  |
| CC(=O)N[C@H](C(=O)N[C@@H](C)C(N)=O)C(C)C [N-Ac-L-Val-L-Ala-NH2] (Ac-Val-Ala-NH2) |  |  |  |  |  |  | approximately 12% | 24 | ~24 | 10 to 15 | 24 | ~24 | 10 to 15 | 95-100% | stopped within a few minutes |
